Tests used:
Amuc0491^3S-Gal/GalNAc = molecular target: T1, Amuc0491^3S-Gal/GalNAc (Akkermansia muciniphila, UniProt B2UNV9); assay: HPAEC and microfluidic desulfation assays; type: biochemical; conditions: 5 mM CaCl2, 150 mM NaCl; kinetics (kcat/Km only) with labelled compound
T1 construct: gene Amuc_0491; recombinant, N-terminal His6 (pETite), E. coli TUNER (DE3)

Amuc1755^4S-Gal [1] = molecular target: T2, Amuc1755^4S-Gal (Akkermansia muciniphila, UniProt B2UML7, E464G); assay: HPAEC and TLC desulfation assay; type: biochemical; conditions: overnight, 37 °C
T2 construct: gene Amuc_1755; recombinant, N-terminal His6 (pETite), E. coli TUNER (DE3); monomer
T2 sequence (B2UML7 entry or part of it E464G): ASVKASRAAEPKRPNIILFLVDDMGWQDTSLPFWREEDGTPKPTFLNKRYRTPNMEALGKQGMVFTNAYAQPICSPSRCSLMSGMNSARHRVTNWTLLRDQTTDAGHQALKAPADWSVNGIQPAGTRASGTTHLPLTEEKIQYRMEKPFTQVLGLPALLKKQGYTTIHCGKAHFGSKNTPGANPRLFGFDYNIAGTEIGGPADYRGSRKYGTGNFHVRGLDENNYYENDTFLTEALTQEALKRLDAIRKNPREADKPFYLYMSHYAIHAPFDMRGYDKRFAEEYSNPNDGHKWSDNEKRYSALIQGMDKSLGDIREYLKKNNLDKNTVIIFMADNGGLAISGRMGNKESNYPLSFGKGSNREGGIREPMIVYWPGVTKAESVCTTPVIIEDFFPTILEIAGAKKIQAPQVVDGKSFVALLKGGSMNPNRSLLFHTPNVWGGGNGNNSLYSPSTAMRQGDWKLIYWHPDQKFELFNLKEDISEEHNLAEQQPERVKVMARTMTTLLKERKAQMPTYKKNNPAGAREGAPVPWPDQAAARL

Amuc1755^4S-Gal [2] = molecular target: T3, Amuc1755^4S-Gal (Akkermansia muciniphila, UniProt B2UML7, E464A); assay: HPAEC and TLC desulfation assay; type: biochemical; conditions: overnight, 37 °C
T3 construct: gene Amuc_1755; recombinant, N-terminal His6 (pETite), E. coli TUNER (DE3); monomer
T3 sequence (B2UML7 entry or part of it E464A): as the sequence (B2UML7 entry or part of it E464G) above, with G441A counted along it

[3] = molecular target: Amuc1033^6S-GlcNAc (Akkermansia muciniphila) (UniProt B2UQX4); assay: SEC-MALS; size-exclusion chromatography coupled to light scattering (90°) and refractive index; Agilent BioSEC Advance 300 Å column; 20 mM Tris-HCl pH 7.4, 150 mM NaCl; calibrated with BSA

T1 sequence (B2UNV9 entry or part of it): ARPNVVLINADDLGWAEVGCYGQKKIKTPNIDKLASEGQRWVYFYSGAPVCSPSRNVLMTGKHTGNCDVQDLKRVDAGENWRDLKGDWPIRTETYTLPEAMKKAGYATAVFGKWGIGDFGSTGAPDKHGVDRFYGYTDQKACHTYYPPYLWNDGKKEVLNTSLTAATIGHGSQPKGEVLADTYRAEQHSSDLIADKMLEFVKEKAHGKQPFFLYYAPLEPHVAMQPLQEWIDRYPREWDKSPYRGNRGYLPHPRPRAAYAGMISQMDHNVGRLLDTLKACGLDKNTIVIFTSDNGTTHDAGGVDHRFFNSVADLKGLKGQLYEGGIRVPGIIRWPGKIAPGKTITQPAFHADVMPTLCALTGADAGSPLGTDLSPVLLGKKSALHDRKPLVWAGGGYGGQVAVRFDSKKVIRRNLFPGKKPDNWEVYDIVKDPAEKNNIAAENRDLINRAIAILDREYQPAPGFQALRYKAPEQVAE

stoichiometry N [3] | Compound | HPAEC and microfluidic desulfation assays (Amuc0491^3S-Gal/GalNAc) | HPAEC and TLC desulfation assay (Amuc1755^4S-Gal [1]) | HPAEC and TLC desulfation assay (Amuc1755^4S-Gal [2])
 | O=S(=O)(O)O[C@H]1[C@@H](O)[C@@H](CO)OC(O)[C@@H]1O (stereo partly drawn) [3S-Gal, O3 sulfated D-galactose] | which desulfate O3 sulfated D-galactose (3S-Gal)-containing substrates |  | 
 | CC(=O)N[C@H]1C(O)O[C@H](CO)[C@H](O)[C@@H]1OS(=O)(=O)O (stereo partly drawn) [3S-GalNAc, O3 sulfated N-acetyl-D-galactosamine] | only Amuc0491^3S-Gal/GalNAc was capable of desulfating O3 sulfatedN-acetyl-D-galactosamine (3S-GalNAc) |  | 
 | O=S(=O)(O)O[C@@H]1[C@H](O)[C@@H](O)C(O)O[C@@H]1CO (stereo partly drawn) [4S-Gal, O4 sulfated D-galactose] |  | but reduced activity on 4S-Gal | but reduced activity on 4S-Gal
 | CC(=O)N[C@H]1C(O)O[C@H](CO)[C@H](OS(=O)(=O)O)[C@@H]1O (stereo partly drawn) [4S-GalNAc, O4 sulfated N-acetyl-D-galactosamine] |  | Mutation of Glu464 to Ala and Gly enabled the Amuc1755^4S-Gal to work on 4S-GalNAc | Mutation of Glu464 to Ala and Gly enabled the Amuc1755^4S-Gal to work on 4S-GalNAc
2 | Amuc1033^6S-GlcNAc (from UniProt B2UQX4 1-581) (enzyme) |  |  | 

From publication PMC13524802, “Unique adaptations in sulfatases underpin colonic mucin degradation by Akkermansia muciniphila” (Nature Microbiology, 2026)
